pIC50: −log10 of the molar value.
How the values were obtained:
DBRTG = test: cells; assay type: cell-based; conditions: read-out: IC50 (in vitro toxicity)
[1] = system: LLCPK cells conditionally expressing hLAT1; test: cells; conditions: 0.5 h, read-out: LC50, concentration of test compound at which the percent surviving cells was 50%
794 = test: cells; assay type: cell-based; conditions: read-out: IC50 (in vitro toxicity)
PC3 = test: cells; assay type: cell-based; conditions: Homo sapiens, PC-3, read-out: IC50 (in vitro toxicity)
U251 = test: cells; assay type: cell-based; conditions: Homo sapiens, U-251, read-out: IC50 (in vitro toxicity)
MDA-MB-231 [2] = test: Triple negative breast cancer study, IV dosing; assay type: in vivo, mouse; conditions: IV once a week for 8 weeks
Protocol: The efficacy of compounds provided by the present disclosure was evaluated on a triple negative breast cancer xenograft model—MDA-MB-231. Human triple negative breast cancer cells were implanted into the flank of nude mice and the study was initiated after the volume of the tumors was 150 mm^3. The animals were IV dosed once a week for 8 weeks with either vehicle or 5 mg/kg of compound (5), or 20 mg/kg compound (7). The tumor volume, body weight, white blood cell count, and granulocyte count were determined during the study and 12 days after the final dose was administered.

Raji = test: cells; assay type: cell-based; conditions: Homo sapiens, read-out: IC50 (in vitro toxicity)
LN229 = test: cells; assay type: cell-based; conditions: Homo sapiens, LN-229, read-out: IC50 (in vitro toxicity)
HS27A = test: cells; assay type: cell-based; conditions: HS-27A, read-out: IC50 (in vitro toxicity)
RPMI8266 = test: cells; assay type: cell-based; conditions: RPMI8266, read-out: IC50 (in vitro toxicity)
MDA-MB-231 [3] = test: cells; assay type: cell-based; conditions: Homo sapiens, MDA-MB-231, read-out: IC50 (in vitro toxicity)
G55 = test: cells; assay type: cell-based; conditions: read-out: IC50 (in vitro toxicity)
42MGBA = test: cells; assay type: cell-based; conditions: read-out: IC50 (in vitro toxicity)
MM1.S = test: cells; assay type: cell-based; conditions: Homo sapiens, read-out: IC50 (in vitro toxicity)
KMS34 = test: cells; assay type: cell-based; conditions: KMS-34, read-out: IC50 (in vitro toxicity)
hLAT2 = molecular target: T1, hLAT2 (Homo sapiens, UniProt Q9UHI5); test: LAT2 uptake inhibition assay, radiolabeled competition uptake with [3H]-leucine; assay type: cell-based
T1 construct: expressed in transfected cells; host or cells: KB or LLCPK cells, tetracycline/doxycycline-inducible
T1 sequence (Q9UHI5 1-535): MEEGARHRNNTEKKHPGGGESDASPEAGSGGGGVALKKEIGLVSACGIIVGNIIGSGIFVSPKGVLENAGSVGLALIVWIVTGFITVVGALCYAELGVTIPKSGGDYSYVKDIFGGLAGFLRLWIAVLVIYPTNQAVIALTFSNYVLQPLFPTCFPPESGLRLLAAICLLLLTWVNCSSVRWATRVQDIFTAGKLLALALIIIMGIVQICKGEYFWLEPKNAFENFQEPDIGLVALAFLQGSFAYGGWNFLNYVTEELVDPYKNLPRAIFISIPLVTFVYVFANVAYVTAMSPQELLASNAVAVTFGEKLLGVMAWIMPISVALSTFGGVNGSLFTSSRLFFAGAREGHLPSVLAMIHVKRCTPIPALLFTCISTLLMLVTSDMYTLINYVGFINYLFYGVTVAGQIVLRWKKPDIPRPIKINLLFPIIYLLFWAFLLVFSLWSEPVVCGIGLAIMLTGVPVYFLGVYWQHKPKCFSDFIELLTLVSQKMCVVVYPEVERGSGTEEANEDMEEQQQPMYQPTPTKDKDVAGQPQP
T1 sequence (P08195 1-630 isoform P08195-1 partner): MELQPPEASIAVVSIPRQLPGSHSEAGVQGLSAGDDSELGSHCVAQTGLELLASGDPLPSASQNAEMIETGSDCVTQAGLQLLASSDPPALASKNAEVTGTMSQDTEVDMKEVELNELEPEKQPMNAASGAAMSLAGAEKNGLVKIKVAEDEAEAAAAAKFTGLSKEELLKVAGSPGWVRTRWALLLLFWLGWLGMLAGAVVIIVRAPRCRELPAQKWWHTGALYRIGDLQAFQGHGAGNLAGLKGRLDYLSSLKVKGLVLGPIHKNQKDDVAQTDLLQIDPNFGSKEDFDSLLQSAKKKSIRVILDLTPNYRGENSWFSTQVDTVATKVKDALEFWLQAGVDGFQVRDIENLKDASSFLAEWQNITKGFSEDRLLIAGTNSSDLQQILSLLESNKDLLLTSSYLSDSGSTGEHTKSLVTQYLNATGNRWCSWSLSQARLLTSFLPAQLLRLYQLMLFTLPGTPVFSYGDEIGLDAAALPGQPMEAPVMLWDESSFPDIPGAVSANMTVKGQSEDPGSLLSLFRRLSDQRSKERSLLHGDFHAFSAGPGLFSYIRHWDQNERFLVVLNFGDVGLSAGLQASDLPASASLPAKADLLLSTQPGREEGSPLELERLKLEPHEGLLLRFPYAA

hLAT1 = molecular target: T2, hLAT1 (Homo sapiens, UniProt Q01650); test: LAT1 uptake inhibition assay, radiolabeled competition uptake with [3H]-Gabapentin; assay type: cell-based
T2 construct: expressed in transfected cells; host or cells: LLCPK cells, tetracycline/doxycycline-inducible, boosted with sodium butyrate

KMS11 = test: cells; assay type: cell-based; conditions: Homo sapiens, KMS-11, read-out: IC50 (in vitro toxicity)
L363 = test: cells; assay type: cell-based; conditions: Homo sapiens, L-363, read-out: IC50 (in vitro toxicity)
MV411 = test: cells; assay type: cell-based; conditions: Homo sapiens, MV4-11, read-out: IC50 (in vitro toxicity)
D283 = test: cells; assay type: cell-based; conditions: D283, read-out: IC50 (in vitro toxicity)
HS5 = test: cells; assay type: cell-based; conditions: HS5, read-out: IC50 (in vitro toxicity)
[4] = system: Human prostate cancer PC3 cells; conditions: mouse, in vivo
AMO1 = test: cells; assay type: cell-based; conditions: Homo sapiens, AMO1, read-out: IC50 (in vitro toxicity)
U266 = test: cells; assay type: cell-based; conditions: Homo sapiens, U-266, read-out: IC50 (in vitro toxicity)
MCF7 = test: In vitro cytotoxicity, MCF7; assay type: cell-based; conditions: Homo sapiens, MCF7, read-out: IC50 (in vitro toxicity)
HCT116 = test: In vitro cytotoxicity, HCT116; assay type: cell-based; conditions: Homo sapiens, HCT-116, read-out: IC50 (in vitro toxicity)
[5] = system: human bone marrow cells (erythroid and myeloid progenitors); test: In vitro bone marrow toxicity, colony forming cell assays; conditions: 14 days in culture, methylcellulose media
[6] = system: LLCPK cells conditionally expressing hLAT1
B16 melanoma cells = test: In vivo tumor growth suppression, B16 efficacy model; parameters: species or system mouse; conditions: C57BL/6 mice, IP daily for 12 days; test compound 5 mg/kg and 10 mg/kg, melphalan 2.5 mg/kg

T2 sequence (Q01650 whole entry, one chain of several): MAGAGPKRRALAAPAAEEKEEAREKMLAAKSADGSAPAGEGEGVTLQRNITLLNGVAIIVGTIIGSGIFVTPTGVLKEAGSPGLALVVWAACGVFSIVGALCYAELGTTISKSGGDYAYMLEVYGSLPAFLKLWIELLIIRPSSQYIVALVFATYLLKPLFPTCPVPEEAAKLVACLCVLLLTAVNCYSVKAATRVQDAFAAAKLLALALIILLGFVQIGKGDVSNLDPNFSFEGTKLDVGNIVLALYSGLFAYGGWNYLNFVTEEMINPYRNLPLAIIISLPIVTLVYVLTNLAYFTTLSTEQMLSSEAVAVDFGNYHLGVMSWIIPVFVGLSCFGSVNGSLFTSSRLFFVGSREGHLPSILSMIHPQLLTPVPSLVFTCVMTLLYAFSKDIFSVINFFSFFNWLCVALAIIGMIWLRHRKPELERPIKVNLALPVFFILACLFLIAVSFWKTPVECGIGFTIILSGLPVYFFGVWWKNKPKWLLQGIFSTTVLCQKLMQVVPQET

Row | Compound | pIC50 (DBRTG) | CC50 [1] [µM] | pIC50 794 | pIC50 (PC3) | pIC50 (U251) | pIC50 (Raji) | pIC50 (LN229) | pIC50 (HS27A) | pIC50 (RPMI8266) | pIC50 (MDA-MB-231 [3]) | pIC50 (G55) | pIC50 (42MGBA) | pIC50 (MM1.S) | pIC50 (KMS34) | pIC50 (hLAT2) | pIC50 (KMS11) | pIC50 (L363) | pIC50 (MV411) | pIC50 (D283) | pIC50 (HS5) | also measured
1 | COc1ccc(N(CCCl)CCCl)cc1C[C@H](N)CC(=O)O [Compound 7, (3S)-3-Amino-4-[5-[bis(2-chloroethyl)amino]-2-methoxy-phenyl]butanoic Acid] | > 4.00 | < 1 | > 4.00 | > 4.00 | > 4.00 | > 4.00 | > 4.00 | < 4.00 | < 4.00 | > 4.00 | > 4.00 | > 4.00 | > 4.00 | < 4.00 | > 4.00 | < 4.00 | < 4.00 | > 4.00 | > 4.00 | < 4.00 | body weight (MDA-MB-231 [2]): maintained weight; myelosuppression (MDA-MB-231 [2]): not dectected; tumor growth suppression (MDA-MB-231 [2]; nude mice, 5 mg/kg compound (5), 20 mg/kg compound (7)): dose-dependent tumor growth suppression; pIC50 (hLAT1): > 4.00; body weight [4]: maintained weight; myelosuppression [4]: not dectected; tumor growth suppression [4]: dose-dependent tumor growth suppression; pIC50 (AMO1): < 4.00; pIC50 (U266): > 4.00
2 | COc1ccc(N(CCCl)CCCl)c(C[C@H](N)CC(=O)O)c1 [Compound 51, (3S)-3-amino-4-[2-[bis(2-chloroethyl)amino]-5-methoxy-phenyl]butanoic acid] | > 4.00 | < 1 | > 4.00 | > 4.00 | > 4.00 | > 4.00 | > 4.00 | < 4.00 | < 4.00 | > 4.00 | > 4.00 | > 4.00 | > 4.00 | > 4.00 | > 4.00 | < 4.00 | > 4.00 | > 4.00 | > 4.00 | < 4.00 | pIC50 (MCF7): > 4.00; pIC50 (HCT116): > 4.00; body weight [4]: maintained weight; myelosuppression [4]: not dectected; tumor growth suppression [4]: dose-dependent tumor growth suppression; pIC50 (AMO1): < 4.00; pIC50 (U266): > 4.00
3 | N[C@@H](Cc1ccc(N(CCCl)CCCl)cc1)C(=O)O [melphalan, reference compound] |  |  |  |  |  |  |  |  |  |  |  |  |  |  |  |  |  |  |  |  | toxicity to bone marrow progenitor cells (BFU-E, CFU-GM, Total CFC) [5]: more toxic to bone marrow progenitor cells than compound (5); percent surviving cells in cells expressing LAT1 versus cells not expressing LAT1 (in words) [6]: about the same; Tumor Growth (% Control), 5 days post-dosing (B16 melanoma cells): 56 % Control; Tumor Growth (% Control), End of dosing (B16 melanoma cells): 33 % Control
